Results from patent US20250230165A1, “HETEROCYCLIC COMPOUNDS FOR USE IN THE TREATMENT OF CANCER” (ARTIOS PHARMA LIMITED, priority 2021, published 2025).

Each molecule was assayed against T1, Human Polθ polymerase domain (aa1820-2590) (Homo sapiens, UniProt O75417) (assay: Polθ Polymerase Domain Kinact/KI Assay (PicoGreen)). Details: 0.8 nM Polθ, 100 nM DNA substrate, kobs vs [I] fit for 2-step covalent inhibitor.
T1 construct: Human Polθ polymerase domain (aa1820-2590) was expressed in E. coli; made in house; host or cells: E. coli
T1 sequence (O75417 1820-2590): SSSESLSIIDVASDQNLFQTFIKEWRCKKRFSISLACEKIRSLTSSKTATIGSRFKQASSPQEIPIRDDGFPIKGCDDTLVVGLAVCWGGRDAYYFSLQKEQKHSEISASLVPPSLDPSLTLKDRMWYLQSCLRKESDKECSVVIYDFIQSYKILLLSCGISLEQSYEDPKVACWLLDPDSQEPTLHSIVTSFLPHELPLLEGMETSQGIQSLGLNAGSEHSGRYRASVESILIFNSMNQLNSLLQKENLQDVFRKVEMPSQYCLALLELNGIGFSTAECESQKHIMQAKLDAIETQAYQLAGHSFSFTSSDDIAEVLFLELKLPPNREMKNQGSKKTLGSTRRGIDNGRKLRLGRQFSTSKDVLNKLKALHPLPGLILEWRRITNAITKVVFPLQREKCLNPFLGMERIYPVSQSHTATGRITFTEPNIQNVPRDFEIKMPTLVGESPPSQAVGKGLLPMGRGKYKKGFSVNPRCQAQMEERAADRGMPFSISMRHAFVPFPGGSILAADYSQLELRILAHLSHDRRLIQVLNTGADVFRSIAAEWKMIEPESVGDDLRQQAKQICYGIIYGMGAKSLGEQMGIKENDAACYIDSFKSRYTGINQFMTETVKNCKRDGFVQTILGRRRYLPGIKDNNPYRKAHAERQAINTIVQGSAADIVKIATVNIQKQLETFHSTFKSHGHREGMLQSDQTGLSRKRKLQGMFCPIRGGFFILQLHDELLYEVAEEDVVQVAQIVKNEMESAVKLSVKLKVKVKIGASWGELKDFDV
Assay type: biochemical
Procedure, shortened: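 Kinact and KI derive from fitting kobs versus [I], where kobs were fitted from EDTA-stopped PicoGreen time courses (up to 60 min) in Tris pH 7.5 buffer with 1% DMSO, 0.8 nM enzyme, 100 nM DNA and […].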

| Kinact/Kl [M⁻¹ s⁻¹] | Structure (SMILES) |
| --- | --- |
| 700000 | C#CC(=O)N1CCn2nc(CN3C[C@H]4CC(=O)N(c5cc(C(F)(F)F)cc(C)n5)[C@@H]4C(=O)N(C)c4cccc(C)c43)cc2C1 [Example 198, (3aR,11aS)-6,10-dimethyl-1-(6-methyl-4-(trifluoro-methyl)pyridin-2-yl)-5-((5-propiolo-yl-4,5,6,7-tetra-hydropyrazolo-[1,5-a]pyrazin-2-yl)methyl)-1,3a,4,5, 10,11a-hexahydro-2H-benzo[b]pyr-rolo[2,3-f][1,4] diazocine-2,11(3H)-dione] |
| 190000 | C=CC(=O)N1CC2(C1)CN(C(=O)CN1C[C@H]3CC(=O)N(c4cc(C(F)(F)F)cc(C)n4)[C@@H]3C(=O)N(C)c3cccc(F)c31)C[C@@H](C)N2 [Example 52, (3aR,11aS)-5-(2-((R)-2-acryloyl-6-methyl-2,5,8-triazaspiro[3.5]nonan-8-yl)-2-oxoethyl)-6-fluoro-10-methyl-1-(6-methyl-4-(trifluoromethyl)pyridin-2-yl)-1,3a,4,5,10,11a-hexahydro-2H-benzo[b]pyrrolo[2,3-f][1,4]diazocine-2,11(3H)-dione] |
| 1.56e+06 | C=CC(=O)N1Cc2ccc(CN3C[C@H]4CC(=O)N(c5cc(C(F)(F)F)cc(C)n5)[C@@H]4C(=O)N(C)c4cccc(C)c43)nc2[C@@H]1CC#N (racemic) [Example 318b, 2-((S/R)-6-acryloyl-2-(((3aR,11aS)-6,10-dimethyl-1-(6-meth-yl-4-(trifluorometh-yl)pyridin-2-yl)-2,11-dioxo-1,2,3,3a, 4,10,11,11a-octa-hydro-5H-benzo[b]pyrrolo[2,3-f][1,4]diazocin-5-yl)meth-yl)-6,7-dihydro-5H-pyrrolo[3,4-b]pyr-idin-7-yl)acetonitrile] |
| 2.37e+06 | C=CC(=O)N1CC(n2cnc(CN3C[C@H]4CC(=O)N(c5cc(C(F)(F)F)cc(C)n5)[C@@H]4C(=O)N(C)c4cccc(C)c43)n2)C1 [Example 139, (3aR,11aS)-5-((1-(1-acryloylazetidin-3-yl)-1H-1,2,4-triazol-3-yl)methyl)-6,10-dimethyl-1-(6-methyl-4-(trifluoromethyl)pyridin-2-yl)-1,3a,4,5,10,11a-hexahydro-2H-benzo[b]pyrrolo[2,3-f][1,4]diazocine-2,11(3H)-dione] |
| 1.87e+06 | Cc1cc(C(F)(F)F)cc(N2C(=O)C[C@@H]3CN(CCOCC4(F)CN(C(=O)/C=C/CN(C)C)C4)c4c(Cl)cccc4N(C)C(=O)[C@H]32)n1 [Example 304, (3aR,11aS)-6-chloro-5-(2-((1-((E)-4-(dimethylamino)but-2-enoyl)-3-fluoroazetidin-3-yl)methoxy)ethyl)-10-methyl-1-(6-methyl-4-(trifluoromethyl)pyridin-2-yl)-1,3a,4,5,10,11a-hexahydro-2H-benzo[b]pyrrolo[2,3-f][1,4]diazocine-2,11(3H)-dione] |
| 860000 | C=CC(=O)N1Cc2cc(CN3C[C@H]4CC(=O)N(c5cc(C(F)(F)F)cc(C)n5)[C@@H]4C(=O)N(C)c4cccc(Cl)c43)cnc2[C@H]1CO (racemic) [Example 231, (3aR,11aS)-5-(((S/R)-6-acryloyl-7-(hydroxymethyl)-6,7-dihydro-5H-pyrrolo[3,4-b]pyridin-3-yl)methyl)-6-chloro-10-methyl-1-(6-methyl-4-(trifluoromethyl)pyridin-2-yl)-1,3a,4,5,10,11a-hexahydro-2H-benzo[b]pyrrolo[2,3-f][1,4]diazocine-2,11(3H)-dione] |
| 1.18e+06 | C=CC(=O)N1CC(N2CCN(C(C)CN3C[C@H]4CC(=O)N(c5cc(C(F)(F)F)cc(C)n5)[C@@H]4C(=O)N(C)c4cccc(F)c43)CC2)C1 (stereo partly drawn) [Example 97, (3aR,11aS)-5-(2-(4-(1-acryloylazetidin-3-yl)piperazin-1-yl)propyl)-6-fluoro-10-methyl-1-(6-methyl-4-(trifluoromethyl)pyridin-2-yl)-1,3a,4,5,10,11a-hexahydro-2H-benzo[b]pyrrolo[2,3-f][1,4]diazocine-2,11(3H)-dione] |
| 4.36e+06 | COc1cc(CN2C[C@H]3CC(=O)N(c4cc(C(F)(F)F)cc(C)n4)[C@@H]3C(=O)N(C)c3cccc(C)c32)ccc1NC(=O)/C=C/CN(C)C [Example 208, (E)-N-(4-(((3aR, 11aS)-6,10-dimethyl-1-(6-methyl-4-(trifluoromethyl)pyridin-2-yl)-2,11-dioxo-1,2,3,3a,4,10,11,11a-octahydro-5H-benzo[b]pyrrolo [2,3-f][1,4]diazocin-5-yl)methyl)-2-methoxyphenyl)-4-(dimethylamino) but-2-enamide] |
| 1.35e+06 | Cc1cc(C(F)(F)F)cc(N2C(=O)C[C@@H]3CN(Cc4cn5c(n4)CN(C(=O)/C=C/C(F)(F)F)CC5)c4c(Cl)cccc4N(C)C(=O)[C@H]32)n1 [Example 307, (3aR,11aS)-6-chloro-10-methyl-1-(6-methyl-4-(trifluoromethyl)pyridin-2-yl)-5-((7-((E)-4,4,4-trifluorobut-2-enoyl)-5,6,7,8-tetrahydroimidazo[1,2-a]pyrazin-2-yl)methyl)-1,3a,4,5,10,11a-hexahydro-2H-benzo[b]pyrrolo[2,3-f][1,4]diazocine-2,11(3H)-dione] |
| 270000 | C=CC(=O)N1Cc2cc(CN3C[C@H]4CC(=O)N(c5cc(C(F)(F)F)cc(C)n5)[C@@H]4C(=O)N(C)c4cccc(C)c43)cnc2C1COC (single isomer, unassigned) [Example 235] |
| 2.11e+06 | C=CC(=O)N1CC[C@H](NCCN2C[C@H]3CC(=O)N(c4cc(C(F)(F)F)cc(C)n4)[C@@H]3C(=O)N(C)c3cccc(Cl)c32)[C@H](F)C1 [Example 66, (3aR,11aS)-5-(2-(((3R,4S)-1-acryloyl-3-fluoropiperidin-4-yl)amino)ethyl)-6-chloro-10-methyl-1-(6-methyl-4-(trifluoromethyl)pyridin-2-yl)-1,3a,4,5,10,11a-hexahydro-2H-benzo[b]pyrrolo[2,3-f][1,4]diazocine-2,11(3H)-dione] |
| 630000 | C=C(CN(C)C)C(=O)Nc1ccc(CN2C[C@H]3CC(=O)N(c4cc(C(F)(F)F)cc(C)n4)[C@@H]3C(=O)N(C)c3cccc(C)c32)cc1OC [Example 210, N-(4-(((3aR,11aS)-6,10-dimethyl-1-(6-methyl-4-(trifluoromethyl)pyridin-2-yl)-2,11-dioxo-1,2,3,3a,4,10,11,11a-octahydro-5H-benzo[b]pyrrolo[2,3-f][1,4]diazocin-5-yl)methyl)-2-methoxyphenyl)-2-((dimethylamino)methyl)acrylamide] |
| 1.3e+06 | Cc1cc(C(F)(F)F)cc(N2C(=O)C[C@@H]3CN(C[C@H]4C[C@@H](NC(=O)/C=C/CN(C)C)C4)c4c(C)cccc4N(C)C(=O)[C@H]32)n1 [Example 332, (E)-N-((1S,3s)-3-(((3aR,11aS)-6,10-dimethyl-1-(6-methyl-4-(trifluoromethyl)-pyridin-2-yl)-2,11-dioxo-1,2,3,3a,4,10, 11,11a-octahydro-5H-benzo[b]pyrrolo [2,3-f][1,4]diazocin-5-yl)methyl)cyclo-butyl)-4-(dimethyl-amino)but-2-enamide] |
| 2.55e+06 | C=C(CN(C)C)C(=O)N1CC(OCCCN2C[C@H]3CC(=O)N(c4cc(C(F)(F)F)cc(C)n4)[C@@H]3C(=O)N(C)c3cccc(C)c32)C1 [Example 77, (3aR,11aS)-5-(3-((1-(2-((dimethylamino)methyl)acryloyl)azetidin-3-yl)oxy)propyl)-6,10-dimethyl-1-(6-methyl-4-(trifluoromethyl)pyridin-2-yl)-1,3a,4,5,10,11a-hexahydro-2H-benzo[b]pyrrolo[2,3-f][1,4]diazocine-2,11(3H)-dione] |
| 2.93e+06 | C=C(CN(C)C)C(=O)NCc1ccc(CN2C[C@H]3CC(=O)N(c4cc(C(F)(F)F)cc(C)n4)[C@@H]3C(=O)N(C)c3cccc(C)c32)cn1 [Example 190, N-((5-(((3aR,11aS)-6,10-dimethyl-1-(6-methyl-4-(trifluoro-methyl)pyridin-2-yl)-2,11-dioxo-1,2,3,3a,4,10,11, 11a-octahydro-5H-benzo[b]pyrrolo [2,3-f][1,4]diazo-cin-5-yl)methyl)-pyridin-2-yl)meth-yl)-2-((dimethyl-amino)methyl)-acrylamide] |
| 140000 | C=CC(=O)N1CCN2CCN(CCN3C[C@H]4CC(=O)N(c5cc(C(F)(F)F)cc(C)n5)[C@@H]4C(=O)N(C)c4cccc(F)c43)C[C@H]2C1 (racemic) [Example 23a, (3aR,11aS)-5-(2-((S/R)-8-acryloyloctahydro-2H-pyrazino[1,2-a]pyrazin-2-yl)ethyl)-6-fluoro-10-methyl-1-(6-methyl-4-(trifluoromethyl)pyridin-2-yl)-1,3a,4,5,10,11a-hexahydro-2H-benzo[b]pyrrolo[2,3-f][1,4]diazocine-2, 11(3H)-dione] |
